The values below are quoted from earlier work in patent US20120115745A1, “METHODS FOR PREDICTING SENSITIVITY TO TREATMENT WITH A TARGETED TYROSINE KINASE INHIBITOR” (priority 2010, published 2012).

Data set [1] has as its target unrelated receptor tyrosine kinases, soluble tyrosine kinases and serine/threonine kinases. To be noted: less activity than against VEGF and PDGF receptor families.
Data set [2] deals with tumor cells that are dependent on mutant, constitutively active, FLT3 and KIT kinases.

As to `Cc1ccc(F)c(NC(=O)Nc2ccc(-c3cccc4[nH]nc(N)c34)cc2)c1` [ABT-869, N-(4-(3-amino-1H-indazol-4-yl)phenyl)-N′-(2-fluoro-5-methylphenyl)urea], the IC50 in data set [1] is > 1000 nM. The “anti-proliferative and apoptotic effects on tumor cells” value in data set [2] is “potent anti-proliferative and apoptotic effects”.

Broadly, the IC50 is the point on the concentration scale where inhibition reaches its midpoint.
